Measured values: patent publication US5663149A, “Human cancer inhibitory pentapeptide heterocyclic and halophenyl amides” (priority 1994, dated 1997)

Experiments:
PS-388 (Mouse Leukemia) = experiment: P-388 mouse leukemia cell growth inhibition; type: cell-based; settings: Mouse Leukemia PS-388
Protocol: (§1) The only difference is historical usage.
(§2) Percent Growths are calculated for each dose.
(§3) This is the "baseline count", or "Tzero reading".

KM20L2 (Colon) = experiment: NCI human tumor cell line growth inhibition, KM20L2; type: cell-based; settings: Colon KM20L2, 48 hours
Protocol: as §1, §2, §3

A498 (Renal) = settings: Renal A498, 48 hours;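 also: NCI protocol, compound given at five doses from 0.01 to 100 µg/ml, percent growth versus untreated controls relative to cell count at time zero, regression on log dose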
From the text: The following measures are used to express drug activity by giving the drug dose which reduces cell growth to a specified percentage of growth:
There is no mathematical difference between ED50 and GI50, which are both calculated using the same formula. The only difference is historical usage.
TGI, (Total Growth Inhibition), is the drug dose needed to yield zero percent growth, i.e., just as many cells at the end of the experiment as were present in the beginning. Whether just as many cells were killed as were produced (steady state), or no growth occurred (total inhibition), cannot be distinguished.
Each drug is tested at five (5) doses: 100-10-1-0.1-0.01 μg/ml. Percent Growths are calculated for each dose. […] The log of the dose is used during the regression computation.
At the start of an experiment, cells from the in vitro cell cultures are inoculated into the appropriate tubes or microtiter plates. One set of control tubes/plates is immediately counted to determine the number of cells at the start of the experiment. This is the "baseline count", or "Tzero reading". At the end of the experiment (48 hours later) a second set of control tubes/plates is analyzed to determine the "Control Growth" value. The growth (or death) of cells relative to the initial quantity of cells is used to define the "Percent of Growth".

SK-MEL-5 (Melanoma) = experiment: NCI human tumor cell line growth inhibition, SK-MEL-5; type: cell-based; settings: Melanoma SK-MEL-5, 48 hours
Protocol: as §1, §2, §3

SF-295 (CNS) = experiment: NCI human tumor cell line growth inhibition, SF-295; type: cell-based; settings: CNS SF-295, 48 hours
Protocol: as §1, §2, §3

OVCAR-3 (Ovarian) = experiment: NCI human tumor cell line growth inhibition, OVCAR-3; type: cell-based; settings: Ovarian OVCAR-3, 48 hours
Protocol: as §1, §2, §3

NCI-H460 (Lung-NSC) = experiment: NCI human tumor cell line growth inhibition, NCI-H460; type: cell-based; settings: Lung-NSC NCI-H460, 48 hours
Protocol: as §1, §2, §3

Substance	ED-50 (PS-388 (Mouse Leukemia))	GI-50 (KM20L2 (Colon))	TGI (KM20L2 (Colon))	GI-50 (A498 (Renal))	TGI (A498 (Renal))	GI-50 (SK-MEL-5 (Melanoma))	TGI (SK-MEL-5 (Melanoma))	GI-50 (SF-295 (CNS))	TGI (SF-295 (CNS))	GI-50 (OVCAR-3 (Ovarian))	TGI (OVCAR-3 (Ovarian))	GI-50 (NCI-H460 (Lung-NSC))	TGI (NCI-H460 (Lung-NSC))	LC-50 (KM20L2 (Colon))	LC-50 (A498 (Renal))	LC-50 (SK-MEL-5 (Melanoma))	LC-50 (SF-295 (CNS))	LC-50 (OVCAR-3 (Ovarian))	LC-50 (NCI-H460 (Lung-NSC))
L-Dolavalyl-L-Valyl-N-Methyl-(S,S,R)-Dolaisoleuinyl-(S,R,R)-Dolaproinyl-L- (p-Chloro)phenylalanine N-2-(6-Chloro)benzothiazole Amide [9l]	0.000458 µg/mL	0.000031 µg/mL	0.096 ng/mL	0.000059 µg/mL	> 0.1 ng/mL	0.0000061 µg/mL	> 0.1 ng/mL	0.000036 µg/mL	> 0.1 ng/mL	0.000018 µg/mL	0.071 ng/mL	0.000043 µg/mL	> 0.1 ng/mL	–	–	–	–	–	–
L-Dolavalyl-L-Valyl-N-Methyl-(S,S,R)-Dolaisoleuinyl-(S,R,R)-Dolaproinyl-L- Isoleucine N-3-Quinoline Amide [9s]	0.00352 µg/mL	0.00003 µg/mL	> 0.1 ng/mL	0.000065 µg/mL	> 0.1 ng/mL	0.0000039 µg/mL	> 0.1 ng/mL	0.000028 µg/mL	> 0.1 ng/mL	0.000018 µg/mL	0.079 ng/mL	0.000027 µg/mL	> 0.1 ng/mL	> 0.0001 µg/mL	> 0.0001 µg/mL	> 0.0001 µg/mL	> 0.0001 µg/mL	> 0.0001 µg/mL	> 0.0001 µg/mL
L-Dolavalyl-L-Valyl-N-Methyl-(S,S,R)-Dolaisoleuinyl-(S,R,R)-Dolaproinyl-L- Methionine N-1-(2-p-Chlorophenylethyl) Amide [9i]	0.000111 µg/mL	0.0000048 µg/mL	0.13 ng/mL	0.000067 µg/mL	> 1 ng/mL	0.0000012 µg/mL	0.43 ng/mL	0.000026 µg/mL	> 1 ng/mL	0.000017 µg/mL	0.072 ng/mL	0.0000032 µg/mL	0.011 ng/mL	> 0.001 µg/mL	> 0.001 µg/mL	> 0.001 µg/mL	> 0.001 µg/mL	> 0.001 µg/mL	> 0.001 µg/mL
L-Dolavalyl-L-Valyl-N-Methyl-(S,S,R)-Dolaisoleuinyl-(S,R,R)-Dolaproinyl-L- Methionine N-2,5-Dichlorophenyl Amide [9g]	0.000125 µg/mL	0.00015 µg/mL	0.61 ng/mL	0.00036 µg/mL	> 1 ng/mL	0.000062 µg/mL	0.65 ng/mL	0.00013 µg/mL	> 1 ng/mL	0.00014 µg/mL	0.51 ng/mL	0.00017 µg/mL	0.66 ng/mL	> 0.001 µg/mL	> 0.001 µg/mL	> 0.001 µg/mL	> 0.001 µg/mL	> 0.001 µg/mL	> 0.001 µg/mL
L-Dolavalyl-L-Valyl-N-Methyl-(S,S,R)-Dolaisoleuinyl-(S,R,R)-Dolaproinyl-L- Methionine N-2-Benzothiazole Amide [9m]	0.000243 µg/mL	0.0000041 µg/mL	> 0.1 ng/mL	0.000016 µg/mL	> 0.1 ng/mL	0.0000024 µg/mL	> 0.1 ng/mL	0.000022 µg/mL	> 0.1 ng/mL	0.0000016 µg/mL	0.011 ng/mL	0.000011 µg/mL	0.08 ng/mL	–	–	–	–	–	–
L-Dolavalyl-L-Valyl-N-Methyl-(S,S,R)-Dolaisoleuinyl-(S,R,R)-Dolaproinyl-L- Methionine N-2-Chlorophenyl Amide [9b]	0.000211 µg/mL	0.000034 µg/mL	0.18 ng/mL	0.000073 µg/mL	> 1 ng/mL	0.00002 µg/mL	> 1 ng/mL	0.000036 µg/mL	> 1 ng/mL	0.000028 µg/mL	0.091 ng/mL	0.000031 µg/mL	0.11 ng/mL	> 0.001 µg/mL	> 0.001 µg/mL	> 0.001 µg/mL	> 0.001 µg/mL	> 0.001 µg/mL	> 0.001 µg/mL
L-Dolavalyl-L-Valyl-N-Methyl-(S,S,R)-Dolaisoleuinyl-(S,R,R)-Dolaproinyl-L- Methionine N-2-Pyridyl Amide [9o]	0.000262 µg/mL	0.000033 µg/mL	0.31 ng/mL	0.00023 µg/mL	> 1 ng/mL	0.000016 µg/mL	0.6 ng/mL	0.00016 µg/mL	> 1 ng/mL	0.000032 µg/mL	0.22 ng/mL	0.00012 µg/mL	0.59 ng/mL	> 0.001 µg/mL	> 0.001 µg/mL	> 0.001 µg/mL	> 0.001 µg/mL	> 0.001 µg/mL	> 0.001 µg/mL
L-Dolavalyl-L-Valyl-N-Methyl-(S,S,R)-Dolaisoleuinyl-(S,R,R)-Dolaproinyl-L- Methionine N-3-Chlorophenyl Amide [9c]	0.00000264 µg/mL	0.000023 µg/mL	0.1 ng/mL	0.000084 µg/mL	> 1 ng/mL	0.0000013 µg/mL	0.26 ng/mL	0.000031 µg/mL	> 1 ng/mL	0.000011 µg/mL	0.1 ng/mL	0.000025 µg/mL	0.11 ng/mL	> 0.001 µg/mL	> 0.001 µg/mL	> 0.001 µg/mL	> 0.001 µg/mL	> 0.001 µg/mL	> 0.001 µg/mL
L-Dolavalyl-L-Valyl-N-Methyl-(S,S,R)-Dolaisoleuinyl-(S,R,R)-Dolaproinyl-L- Methionine N-3-Quinoline Amide [9p]	0.000356 µg/mL	0.00000065 µg/mL	> 0.1 ng/mL	0.000008 µg/mL	> 0.1 ng/mL	0.00000038 µg/mL	> 0.1 ng/mL	0.000004 µg/mL	> 0.1 ng/mL	0.00000032 µg/mL	0.01 ng/mL	0.0000031 µg/mL	0.017 ng/mL	> 0.0001 µg/mL	> 0.0001 µg/mL	> 0.0001 µg/mL	> 0.0001 µg/mL	> 0.0001 µg/mL	> 0.0001 µg/mL
L-Dolavalyl-L-Valyl-N-Methyl-(S,S,R)-Dolaisoleuinyl-(S,R,R)-Dolaproinyl-L- Methionine N-4-Chlorophenyl Amide [9e]	0.000603 µg/mL	0.00000084 µg/mL	0.0051 ng/mL	0.0000035 µg/mL	> 0.01 ng/mL	0.00000033 µg/mL	> 0.01 ng/mL	0.0000023 µg/mL	> 0.01 ng/mL	0.00000045 µg/mL	0.0042 ng/mL	0.0000022 µg/mL	0.0085 ng/mL	> 0.00001 µg/mL	> 0.00001 µg/mL	> 0.00001 µg/mL	> 0.00001 µg/mL	> 0.00001 µg/mL	> 0.00001 µg/mL
L-Dolavalyl-L-Valyl-N-Methyl-(S,S,R)-Dolaisoleuinyl-(S,R,R)-Dolaproinyl-L- Methionine N-4-Fluorophenyl Amide [9a]	0.000317 µg/mL	0.00005 µg/mL	0.39 ng/mL	0.00025 µg/mL	> 1 ng/mL	0.000038 µg/mL	0.57 ng/mL	0.0001 µg/mL	> 1 ng/mL	0.000049 µg/mL	0.33 ng/mL	0.000089 µg/mL	0.66 ng/mL	> 0.001 µg/mL	> 0.001 µg/mL	> 0.001 µg/mL	> 0.001 µg/mL	> 0.001 µg/mL	> 0.001 µg/mL
